In US5534498A, “Trypsin inhibitors” (Corvas International, Inc., priority 1993, dated 1996):
Non-standard residues stand in square brackets, D forms with d. Residues, ends and D or L forms follow the SMILES beside them. *: point of attachment. Boc = CC(C)(C)OC(=O)*

What was measured:
Factor VIIa:rTF complex = molecular target: T1, Factor VIIa:rTF complex (Homo sapiens, UniProt P08709); assay: Factor VIIa assay (S-2288 substrate); format: biochemical
T1 construct: 2.5 ml 400 nMhuman Factor VIIa
Method: (§1) The specificity of the peptide aldehydes (8 through 12) was determined in vitro by measurement of their IC50 against other enzymes involved in hemostasis. A specific concentration of enzyme and its substrate were challenged with varying concentrations of inhibitor. IC50 is that concentration of inhibitor giving 50% inhibition of substrate turnover, under the assay conditions. Specific assay procedures used are presented below.
(§2) 96-well microtiter plates were prepared for use in these assays by incubating each well with 300 μL 1% bovine serum albumin (in deionized water) for 30 minutes at 37° C., then washing three times with deionized water.
Enzyme activity was determined using as substrate, S-2288 [D-isoleucyl-L-prolyl-L-arginine-p-nitroanilide dihydrochloride], purchased from Kabi Diagnostica. The substrate was made up in deionized water prior to use.
Both solutions were then incubated for 30 minutes at room temperature before use in the assay.
The assay was run by combining in appropriate wells 50 μL inhibitor in TBS or TBS alone and 100 μL of Factor VIIa:rTF complex or background control, incubating this mixture for 30 minutes at room temperature, adding 50 μL of 2 mM S-2288, incubating for an additional 30 to 60 minutes at room temperature, then reading the absorbance of the wells at 405 nm on a microtiter plate reader set with background substraction at 650 nm.

human kallekrein = molecular target: T2, human kallekrein (Homo sapiens, UniProt P03952); assay: Kallikrein assay (S-2302 substrate); format: biochemical; details: for IC50: 30 min preincubation, room temperature, tested 0.025-25 μM, Inact. = no inhibition at highest concentration
T2 construct: 50 μL of 4 to 9 nM human kallekrein
T2 sequence (P03952 391-638 limits assumed): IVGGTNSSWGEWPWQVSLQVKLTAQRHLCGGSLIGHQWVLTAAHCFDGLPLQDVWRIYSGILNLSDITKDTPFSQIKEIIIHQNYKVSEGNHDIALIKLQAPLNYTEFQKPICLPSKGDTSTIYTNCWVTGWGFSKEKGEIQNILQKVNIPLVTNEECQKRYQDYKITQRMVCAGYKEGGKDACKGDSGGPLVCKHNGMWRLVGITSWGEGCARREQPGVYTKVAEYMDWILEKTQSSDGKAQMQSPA
T2 sequence (P03952 20-390 partner limits assumed): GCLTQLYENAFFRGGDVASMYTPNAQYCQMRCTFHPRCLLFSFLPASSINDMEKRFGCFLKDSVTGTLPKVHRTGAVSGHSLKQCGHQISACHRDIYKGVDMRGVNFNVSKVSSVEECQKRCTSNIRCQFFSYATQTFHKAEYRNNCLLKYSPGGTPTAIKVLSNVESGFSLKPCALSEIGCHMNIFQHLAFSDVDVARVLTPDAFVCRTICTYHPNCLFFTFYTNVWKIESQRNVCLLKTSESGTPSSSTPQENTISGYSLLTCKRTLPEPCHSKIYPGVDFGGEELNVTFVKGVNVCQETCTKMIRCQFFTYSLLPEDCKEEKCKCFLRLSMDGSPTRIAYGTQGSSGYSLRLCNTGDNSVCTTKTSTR
Method: as §1, with “IC50 is that concentration of inhibitor giving 50% inhibition of substrate turnover, under the assay conditions.” left out
as §2
(§3) The substrate was made up in deionized water prior to use.

[1] = molecular target: T3, Activated human Protein C (Homo sapiens, UniProt P04070); assay: Protein C assay (Pefachrome PC substrate); format: biochemical; details: for IC50: 30 min preincubation, room temperature, tested 0.025-25 μM, Inact. = no inhibition at highest concentration
T3 construct: from tissue
T3 sequence (P04070 212-461 limits assumed): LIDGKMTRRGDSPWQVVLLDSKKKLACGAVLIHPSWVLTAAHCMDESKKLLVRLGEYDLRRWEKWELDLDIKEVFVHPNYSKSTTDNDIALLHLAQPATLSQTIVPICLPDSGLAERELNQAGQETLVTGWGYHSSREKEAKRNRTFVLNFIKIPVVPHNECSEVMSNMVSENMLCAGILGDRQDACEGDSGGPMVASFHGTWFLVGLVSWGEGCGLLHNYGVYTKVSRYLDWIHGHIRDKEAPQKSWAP
T3 sequence (P04070 43-197 partner limits assumed): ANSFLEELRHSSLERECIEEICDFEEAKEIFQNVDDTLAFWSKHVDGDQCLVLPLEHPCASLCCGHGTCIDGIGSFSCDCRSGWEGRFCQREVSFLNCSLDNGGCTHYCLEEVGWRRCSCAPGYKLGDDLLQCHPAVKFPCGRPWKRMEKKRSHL
Method: as §1, with “IC50 is that concentration of inhibitor giving 50% inhibition of substrate turnover, under the assay conditions.” left out
as §2
Enzyme activity was determined using as substrate, Pefachrome PC [δ-carbobenzoloxy-D-lysyl-L-prolyl-L-arginine-p-nitroanilide], purchased from Centerchem, Inc. The substrate was made up in deionized water prior to use. Protac used to activate Protein C was obtained from American Diagnostics.

human Factor XIa = molecular target: T4, human Factor XIa (Homo sapiens, UniProt P03951); assay: Factor XIa assay (S-2366 substrate); format: biochemical; details: for IC50: 30 min preincubation, room temperature, tested 0.025-25 μM, Inact. = no inhibition at highest concentration
T4 construct: 50 μL of 5 nM human Factor XIa
T4 sequence (P03951 388-625 limits assumed): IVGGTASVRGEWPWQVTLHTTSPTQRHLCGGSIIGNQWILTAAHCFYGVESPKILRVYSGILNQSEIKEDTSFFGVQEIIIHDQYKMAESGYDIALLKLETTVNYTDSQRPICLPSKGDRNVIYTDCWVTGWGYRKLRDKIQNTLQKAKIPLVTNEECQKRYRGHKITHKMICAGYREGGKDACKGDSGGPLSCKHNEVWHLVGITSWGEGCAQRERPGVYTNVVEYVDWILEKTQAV
T4 sequence (P03951 19-387 partner limits assumed): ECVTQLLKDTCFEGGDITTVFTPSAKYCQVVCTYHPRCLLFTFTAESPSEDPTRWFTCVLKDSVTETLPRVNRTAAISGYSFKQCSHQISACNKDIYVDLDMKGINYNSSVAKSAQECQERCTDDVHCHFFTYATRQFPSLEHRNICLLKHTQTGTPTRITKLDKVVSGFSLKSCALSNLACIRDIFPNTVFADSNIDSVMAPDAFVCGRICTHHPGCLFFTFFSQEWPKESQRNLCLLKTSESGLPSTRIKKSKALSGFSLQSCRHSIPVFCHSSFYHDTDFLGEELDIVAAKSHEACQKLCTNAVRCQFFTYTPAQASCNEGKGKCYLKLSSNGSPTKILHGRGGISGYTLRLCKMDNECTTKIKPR
Method: as §1, with “IC50 is that concentration of inhibitor giving 50% inhibition of substrate turnover, under the assay conditions.” left out
as §2, §3

[2] = molecular target: recombinant tissue plasminogen activator (Homo sapiens, UniProt P00750); assay: Tissue plasminogen activator assay (S-2288 substrate); format: biochemical
Sequence of recombinant tissue plasminogen activator (P00750 36-562): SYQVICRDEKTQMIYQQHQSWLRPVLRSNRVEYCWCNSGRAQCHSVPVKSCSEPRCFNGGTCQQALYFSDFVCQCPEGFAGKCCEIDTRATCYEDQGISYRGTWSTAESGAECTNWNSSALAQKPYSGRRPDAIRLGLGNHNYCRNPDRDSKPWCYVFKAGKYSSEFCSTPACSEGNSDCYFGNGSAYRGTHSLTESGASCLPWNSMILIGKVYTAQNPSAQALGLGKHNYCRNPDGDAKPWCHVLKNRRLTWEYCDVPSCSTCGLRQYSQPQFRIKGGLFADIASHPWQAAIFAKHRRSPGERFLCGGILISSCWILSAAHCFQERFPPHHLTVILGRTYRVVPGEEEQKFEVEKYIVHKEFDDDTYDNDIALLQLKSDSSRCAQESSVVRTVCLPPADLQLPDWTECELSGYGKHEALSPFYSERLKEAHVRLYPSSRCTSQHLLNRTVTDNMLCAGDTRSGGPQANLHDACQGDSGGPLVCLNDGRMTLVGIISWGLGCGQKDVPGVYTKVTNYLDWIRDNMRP
Method: as §1, with “IC50 is that concentration of inhibitor giving 50% inhibition of substrate turnover, under the assay conditions.” left out
as §2, §3

plasmin = plasmin (Homo sapiens, UniProt P00747); assay: Plasmin assay (S-2251 substrate); format: biochemical; parameters: 50 μL 25 nM human plasmin; details: for IC50: 30 min preincubation, room temperature, tested 0.025-25 μM, Inact. = no inhibition at highest concentration
Sequence of plasmin (P00747 581-810 limits assumed): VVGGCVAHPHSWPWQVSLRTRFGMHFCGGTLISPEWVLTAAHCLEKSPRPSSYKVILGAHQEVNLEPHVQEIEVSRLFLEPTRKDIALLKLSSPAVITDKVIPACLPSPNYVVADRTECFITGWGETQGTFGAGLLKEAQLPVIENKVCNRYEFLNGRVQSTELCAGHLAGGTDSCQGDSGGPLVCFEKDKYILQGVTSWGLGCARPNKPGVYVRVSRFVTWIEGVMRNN
Sequence of plasmin (P00747 97-580 partner limits assumed): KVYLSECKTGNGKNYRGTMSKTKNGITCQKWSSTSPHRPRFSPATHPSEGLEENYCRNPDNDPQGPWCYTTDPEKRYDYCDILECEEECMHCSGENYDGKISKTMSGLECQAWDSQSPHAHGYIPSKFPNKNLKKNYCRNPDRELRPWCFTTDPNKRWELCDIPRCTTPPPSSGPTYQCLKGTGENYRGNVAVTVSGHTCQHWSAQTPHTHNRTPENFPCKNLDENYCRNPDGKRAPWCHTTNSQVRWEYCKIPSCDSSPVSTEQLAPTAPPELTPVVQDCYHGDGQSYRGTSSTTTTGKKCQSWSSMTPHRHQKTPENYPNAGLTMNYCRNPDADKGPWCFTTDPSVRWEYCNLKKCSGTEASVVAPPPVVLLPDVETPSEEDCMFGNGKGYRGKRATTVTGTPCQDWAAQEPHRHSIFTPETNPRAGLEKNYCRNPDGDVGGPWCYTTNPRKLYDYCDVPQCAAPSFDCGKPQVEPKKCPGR
Method: as §1, with “IC50 is that concentration of inhibitor giving 50% inhibition of substrate turnover, under the assay conditions.” left out
as §2, §3

bovine thrombin = molecular target: T5, bovine thrombin (Bos taurus, UniProt P00735); assay: Thrombin assay (S-2238 substrate); format: biochemical
T5 construct: 50 μL 20 nM bovine thrombin
Method: as §1, §2
Enzyme activity was determined using as substrate, S-2238 [D-phenylalanyl-L-pipecolyl-L-arginine-p-nitroanilide dihydrochloride], purchased from Kabi Diagnostica. The substrate was made up in deionized water prior to use.
(§4) The assay was run by combining in appropriate wells 50 μL TBS and 50 μL inhibitor in TBS or TBS alone and 50 μL 20 nM bovine thrombin (or TBS as background control), incubating this mixture for 30 minutes at room temperature, adding 50 μL 1 mM S-2238, incubating for an additional 30 minutes at room temperature, then reading the absorbance of the wells at 405 nm on a microtiter plate reader set with background substraction at 650 nm.

human urokinase = molecular target: T6, human urokinase (Homo sapiens, UniProt P00749); assay: Urokinase assay (S-2444 substrate); format: biochemical
T6 construct: 50 μL of 270 U/mL human urokinase
Method: as §1, §2
Enzyme activity was determined using as substrate S-2444 [L-pyroglutamyl-L-glycyl-L-arginine-p-nitroanilide hydrochloride], purchased from Kabi Diagnostica. The substrate was made up in deionized water prior to use.
as §4, with “μL” for “μL TBS and 50 μL”, “of 270 U/mL human urokinase” for “20 nM bovine thrombin”, “control) and 50 μL TBS,” for “control),”, “S-2444,” for “S-2238,”

human Factor Xa = molecular target: T7, human Factor Xa (Homo sapiens, UniProt P00742); assay: Factor Xa assay (Pefachrome Xa substrate); format: biochemical; details: for IC50: 30 min preincubation, room temperature, tested 0.025-25 μM, Inact. = no inhibition at highest concentration
T7 construct: 50 μL 30 nM human Factor Xa
T7 sequence (P00742 235-488 limits assumed): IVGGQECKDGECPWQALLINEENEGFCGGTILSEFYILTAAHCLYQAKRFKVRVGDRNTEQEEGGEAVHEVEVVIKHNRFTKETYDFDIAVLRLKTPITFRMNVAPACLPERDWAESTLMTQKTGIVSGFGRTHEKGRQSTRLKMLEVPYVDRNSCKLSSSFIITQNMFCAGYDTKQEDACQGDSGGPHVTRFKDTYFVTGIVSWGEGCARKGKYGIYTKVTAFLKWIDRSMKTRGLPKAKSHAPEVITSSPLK
T7 sequence (P00742 41-179 partner limits assumed): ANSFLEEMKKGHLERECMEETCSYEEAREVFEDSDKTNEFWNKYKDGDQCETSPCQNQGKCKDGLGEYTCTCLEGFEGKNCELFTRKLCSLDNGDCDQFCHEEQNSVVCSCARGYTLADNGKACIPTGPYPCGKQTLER
Method: as §1, with “IC50 is that concentration of inhibitor giving 50% inhibition of substrate turnover, under the assay conditions.” left out
as §2
Enzyme activity was determined using as substrate, Pefachrome Xa [N-methoxycarbonyl-D-cyclohexylalanyl-L-glycyl-L-arginine p-niroanilide acetate], purchased from Centerchem, Inc. The substrate was made up in deionized water prior to use.

bovine trypsin = molecular target: T8, bovine trypsin (Bos taurus, UniProt P00760); assay: Trypsin assay, IC50 (S-2222 substrate); format: biochemical; details: for IC50: 30 min preincubation, room temperature, tested 0.025-25 μM
T8 sequence (P00760 24-246): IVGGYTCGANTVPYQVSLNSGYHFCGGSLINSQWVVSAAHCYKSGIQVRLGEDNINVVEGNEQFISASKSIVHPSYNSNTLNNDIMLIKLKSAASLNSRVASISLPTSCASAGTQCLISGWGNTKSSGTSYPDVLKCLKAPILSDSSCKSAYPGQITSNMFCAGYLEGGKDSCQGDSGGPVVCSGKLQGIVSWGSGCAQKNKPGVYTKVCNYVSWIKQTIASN
Method: as §1, with “IC50 is that concentration of inhibitor giving 50% inhibition of substrate turnover, under the assay conditions.” left out
as §2, §3

[3] = molecular target: bovine and human pancreatic trypsin; assay: Potency: determination of inhibitor constant Ki against trypsin (S-2222 substrate, Dixon plot); format: biochemical; details: 37° C., TBS pH 7.4, 15 min preincubation, read-out: Ki For Peptide Aldehydes Against Trypsin
Method: The potency and specificity of the compounds of the present invention are determined by in vitro assay methods well known in the art. […] Specifically, the inhibitor constant, Ki, of the compounds can be determined by the method of Dixon, Biochem. J. 55:170 (1953). The specificity is assessed by determination of the concentration, IC50, of compound required to give 50% inhibition of the enzymatic activity of the coagulation enzymes, kallikrein, factor XIa, factor VIIa, factor Xa, thrombin; the fibrinolysis enzymes, plasmin, tissue plasminogen activator (tPA), and urokinase (UK), and the anticoagulation enzyme, protein C. Specificity is found when the concentration of compound giving 50% inhibition of trypsin is low relative to the concentration required to give like inhibition of the other enzymes.
Enzyme activity was determined using as substrate S-2222 [N-benzoyl-L-isoleucyl-L-glutamyl-glycyl-L-arginine-p-nitroanilide hydrochloride where glutamyl side chain is 50% carboxylic acid and 50% methyl ester], purchased from Kabi Diagnostica. The substrate was made up in deionized water prior to use.
A 96-well microtiter plate was prepared for use in the assay by incubating each well with 300 μL of 1% bovine serum albumin (in deionized water) for 30 minutes at 37° C., and washing three times with deionized water.
To each well was added 50 μL TBS (0.1M Tris, 0.14M NaCl, pH 7.4), 50 μL 2.5 nM trypsin and 50 μL peptide aldehyde in TBS or TBS alone. After incubating for 15 minutes at 37° C., 50 μL of S-2222 (at 37° C.) at a specified concentration was added to each well. After mixing, the rate of substramte turnover at 37° C. was measured for 30 minutes at 405 nm (generation of p-nitroaniline). The initial S-2222 concentrations in the assay mixture were 0.45, 0.23, 0.11, 0.056, and 0.028 mM.
Ki was determined graphically using a Dixon plot, as described in Dixon, Biochem. J. 55:170 (1953).

[4] = system: acute pancreatitis induced in animal models; details: literature reports; cited from earlier work
[5] = 30 min preincubation, room temperature, tested 0.025-25 μM, Inact. = no inhibition at highest concentration
[6] = [IC50 for Trypsin/IC50 for other enzyme]×100, lower = more trypsin selective

T1 sequence (P08709 213-466 limits assumed): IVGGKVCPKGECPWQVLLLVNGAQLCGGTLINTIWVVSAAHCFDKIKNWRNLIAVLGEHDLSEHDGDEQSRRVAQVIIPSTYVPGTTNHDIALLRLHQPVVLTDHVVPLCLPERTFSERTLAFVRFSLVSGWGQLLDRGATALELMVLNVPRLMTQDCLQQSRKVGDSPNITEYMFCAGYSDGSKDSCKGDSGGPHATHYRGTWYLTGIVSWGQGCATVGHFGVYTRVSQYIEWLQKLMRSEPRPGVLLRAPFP
T1 sequence (P08709 61-212 partner limits assumed): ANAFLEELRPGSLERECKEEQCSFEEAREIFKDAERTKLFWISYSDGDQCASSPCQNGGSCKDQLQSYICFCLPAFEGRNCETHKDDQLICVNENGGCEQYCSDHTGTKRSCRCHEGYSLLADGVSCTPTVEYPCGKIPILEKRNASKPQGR
T1 sequence (P13726 33-295 partner): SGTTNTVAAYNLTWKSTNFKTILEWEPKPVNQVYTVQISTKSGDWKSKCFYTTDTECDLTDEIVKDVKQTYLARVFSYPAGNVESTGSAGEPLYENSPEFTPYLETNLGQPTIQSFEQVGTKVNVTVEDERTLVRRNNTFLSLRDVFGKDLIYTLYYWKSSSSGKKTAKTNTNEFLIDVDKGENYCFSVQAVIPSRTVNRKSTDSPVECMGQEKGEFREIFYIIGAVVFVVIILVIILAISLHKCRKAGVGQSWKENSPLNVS

IC50 (human kallekrein) [µM] | IC50 [1] [µM] | IC50 (human Factor XIa) [µM] | IC50 [2, 5] [µM] | IC50 (plasmin) [µM] | IC50 (human Factor Xa) [µM] | IC50 (bovine trypsin) [µM] | IC50 (Factor VIIa:rTF complex; [5]) [µM] | IC50 (bovine thrombin; [5]) [µM] | SMILES | efficacy in the treatment of acute pancreatitis induced in animal models [4] | also measured
> 25 | > 25 | > 25 | > 25 | 1.2 | > 25 | 0.084 |  |  | CC(C)(C)OC(=O)N[C@H](CC(=O)O)C(=O)N1CCC[C@H]1C(=O)N[C@H](C=O)CCCNC(=N)N [Compound 12, N-t-buyloxycarbonyl-D-Asp-L-Pro-L-argininal] (Boc-[dD]-Pro-Arg-aldehyde) |  | IC50 VIIA (Factor VIIa:rTF complex; [5]): Inact.; Calculated % Selectivity VIIa (Factor VIIa:rTF complex; [6]): 0%; Calculated % Selectivity Kallikrein (human kallekrein; [6]): < 0.34%; Calculated % Selectivity Protein C [1, 6]: < 0.3%; Calculated % Selectivity XIa (human Factor XIa; [6]): < 0.34%; Calculated % Selectivity tPA [2, 6]: < 0.3%; Calculated % Selectivity Plasmin (plasmin; [6]): 7%; IC50 Thrombin (bovine thrombin; [5]): Inact.; Calculated % Selectivity Thrombin (bovine thrombin; [6]): 0%; IC50 (human urokinase; [5]): 17 µM; Calculated % Selectivity UK (human urokinase; [6]): 0.5%; Calculated % Selectivity Xa (human Factor Xa; [6]): < 0.34%; Calculated % Selectivity Trypsin (bovine trypsin; trypsin relative to itself (reference, 100 by definition)): 100%; Ki [3]: 0.045 µM
 |  |  |  |  |  |  |  |  | CN(C)C(=O)COC(=O)Cc1ccc(OC(=O)c2ccc(NC(=N)N)cc2)cc1.CS(=O)(=O)O [Foy-305, camostate] | effective to varying degrees | 
< 0.025 | 0.084 | < 0.025 | 0.37 |  | 6 | < 0.025 | 1.2 | 0.21 | N=C(N)c1ccc2cc(OC(=O)c3ccc(N=C(N)N)cc3)ccc2c1 [Futhan, 6-amidino-2-naphthyl-4-guanidino benzoate dimethanesulfonate, reference compound] | effective | 
4 | > 25 | 11 |  | 8 | 25 | 1.7 | > 25 | 20 | CC(=O)N[C@@H](CC(C)C)C(=O)N[C@@H](CC(C)C)C(=O)N[C@H](C=O)CCCNC(=N)N [Leupeptin, reference compound] |  | IC50 tPA [2, 5]: Inact.; IC50 UK (human urokinase; [5]): Inact.
